According to patent US4194006A, “Therapeutic application of acetyl-d,l-carnitine and other acyl derivatives of d,l-carnitine” (priority 1977, dated 1980):
Where two headings read alike, the source gives them in different places.

Legend:
isolated rat atrium = assay: antiarrhythmic effect, isolated rat atrium method of M. Libonati and G. Segre; settings: Rattus norvegicus; for inhibition at 0.1 µg/mL / activation at 0.1 µg/mL: 1·10^-4 g/lt; for inhibition at 0.1 µg/mL / inhibition at 0.01 µg/mL / inhibition at 0.001 µg/mL: decrease; for activation at 0.1 µg/mL / activation at 0.01 µg/mL / activation at 0.001 µg/mL: increase; for inhibition at 0.01 µg/mL / activation at 0.01 µg/mL: 1·10^-5 g/lt; for inhibition at 0.001 µg/mL / activation at 0.001 µg/mL: 1·10^-6 g/lt
isolated rabbit hearts [1] = assay: cardiokinetic effect on isolated heart (Langendorff): contractile force after anoxia, positive inotropic effect; settings: 10 minutes from interruption of anoxic period
Description: (§1) The cardiokinetic effect on isolated heart was also investigated as follows. Rabbit hearts isolated by the Langendorff method were perfused with oxygenized ringer solution at 38.2° C. The isometric contractions, electrocardiogram and coronary flow were recorded using a "Battaglia-Rangoni" polygraph. By removing the oxygen from the perfusion fluid, metabolic damage was induced in the cardia muscle, up to an 80% reduction in the cardiac contractile force.
(§2) Under these conditions of prolonged anoxia the aerobic glycolysis of the myocardium is slowed down, accompanied by the storage of acid catabolites due to both the accumulation of pyruvic acid and its conversion to lactic acid which cannot be utilized because of the depression of pyridine enzymes, such as LDH (lactodehydrogenase). This has repercussions on the anaerobic glycolysis affecting an ever increasing number of enzymes, accompanied by a progressive and increasingly critical exhaustion of the myocardium. Thus a whole series of cardiac muscle fatigue levels occurs which can be observed by the behavior of the examined parameters, namely the contractile force, coronary flow, heart rate and cardiac rhythm. As soon as the contractile force was reduced by 80%, the perfusion fluid was once again oxygenized either without adding other compounds (controls) or with the addition of the compounds under examination.
Table 3 below gives the percentage values of the contractile force of the heart, showing a positive inotropic effect, calculated after 10 minutes from the interruption of the anoxic period (myocardial restoration).

isolated rabbit hearts [2] = assay: coronary vasodilator effect: coronary flow, isolated heart (Langendorff)
Description: as §1, §2

female rats = assay: antifatigue effect: rota-rod; assay type: in vivo, rat; settings: Rattus norvegicus, ip, 0.25 h; for responders at 300 mg/kg: 300 mg/kg i.p.; for responders at 300 mg/kg / responders at 400 mg/kg / responders at 600 mg/kg: read-out: percentage of animals staying on the rota-rod more than 180 seconds; for responders at 400 mg/kg: 400 mg/kg i.p.; for responders at 600 mg/kg: 600 mg/kg i.p.; for responders at 0.25 mg/kg: read-out: percentage of animals staying on the rota-rod more than 180 seconds, 0.25 mg/kg i.p.; for responders at 0.5 mg/kg: read-out: percentage of animals staying on the rota-rod more than 180 seconds, 0.50 mg/kg i.p.; for responders at 1 mg/kg: read-out: percentage of animals staying on the rota-rod more than 180 seconds, 1.00 mg/kg i.p.
Description: The antifatigue effect was also examined with the following results. The antifatigue effect was investigated by administering the compounds of the formula (I) according to the present application to female rats intraperitoneally in saline solution and saline solution alone to the controls by the same route. Every 15 minutes (sessions) after treatment, the animals were placed on a 6 cm diameter rod, rotating at 16 r.p.m. The percentage of the animals capable of staying on the rota-rod for a duration of more than 180 seconds was then recorded.

[3] = read-out: Mean percent variation versus controls: excitability (-%)
[4] = read-out: Mean percent variation versus controls: frequency max (-%)
[5] = read-out: Mean percent variation versus controls: refractory period (+%)
[6] = read-out: Mean percent variation versus controls: rheobase (+%)
[7] = session 6 (every 15 minutes), * p < 0.05

Structure (SMILES): C=C[C@H]1C[N@@]2CC[C@H]1C[C@@H]2[C@@H](O)c1ccnc2ccc(OC)cc12 [Quinidine, reference compound]
- inhibition at 0.1 µg/mL (isolated rat atrium; [3]): 189%
- inhibition at 0.1 µg/mL (isolated rat atrium; [4]): 71.2%
- activation at 0.1 µg/mL (isolated rat atrium; [5]): 57.4%
- activation at 0.1 µg/mL (isolated rat atrium; [6]): 54.1%
- inhibition at 0.01 µg/mL (isolated rat atrium; [3]): 23.4%
- inhibition at 0.01 µg/mL (isolated rat atrium; [4]): 24.1%
- activation at 0.01 µg/mL (isolated rat atrium; [5]): 20.4%
- activation at 0.01 µg/mL (isolated rat atrium; [6]): 25.1%
- inhibition at 0.001 µg/mL (isolated rat atrium; [3]): 16.9%
- inhibition at 0.001 µg/mL (isolated rat atrium; [4]): 11.7%
- activation at 0.001 µg/mL (isolated rat atrium; [5]): 3.12%
- activation at 0.001 µg/mL (isolated rat atrium; [6]): 7.14%

Structure (SMILES): CCCCCC(=O)OC(CC(=O)[O-])C[N+](C)(C)C (racemic) [hexanoyl-d,l-carnitine]
- Contractile force, Mean ± S.E. (isolated rabbit hearts [1]; 1·10^-5 g/lt): 38.0 ± 4.80%
- Contractile force, Mean ± S.E. (isolated rabbit hearts [1]; 1·10^-6 g/lt): 24.2 ± 3.88%
- Contractile force, Mean ± S.E. (isolated rabbit hearts [1]; 5·10^-6 g/lt): 28.8 ± 3.16%
- Coronary flow, Mean ± S.E. (isolated rabbit hearts [2]; 1·10^-5 g/lt): 84.08 ± 5.14%
- Coronary flow, Mean ± S.E. (isolated rabbit hearts [2]; 1·10^-6 g/lt): 76.25 ± 4.75%
- Coronary flow, Mean ± S.E. (isolated rabbit hearts [2]; 5·10^-6 g/lt): 75.28 ± 8.36%
- inhibition at 0.1 µg/mL (isolated rat atrium; [3]): 26.3%
- inhibition at 0.1 µg/mL (isolated rat atrium; [4]): 25.1%
- activation at 0.1 µg/mL (isolated rat atrium; [5]): 21.7%
- activation at 0.1 µg/mL (isolated rat atrium; [6]): 21.7%
- inhibition at 0.01 µg/mL (isolated rat atrium; [3]): 18.2%
- inhibition at 0.01 µg/mL (isolated rat atrium; [4]): 12.3%
- activation at 0.01 µg/mL (isolated rat atrium; [5]): 12.7%
- activation at 0.01 µg/mL (isolated rat atrium; [6]): 10.1%
- inhibition at 0.001 µg/mL (isolated rat atrium; [3]): 12.4%
- inhibition at 0.001 µg/mL (isolated rat atrium; [4]): 8.71%
- activation at 0.001 µg/mL (isolated rat atrium; [5]): 9.04%
- activation at 0.001 µg/mL (isolated rat atrium; [6]): 6.2%
- responders at 300 mg/kg (female rats; session 1 (every 15 minutes)): 0%
- responders at 300 mg/kg (female rats; session 2 (every 15 minutes)): 0%
- responders at 300 mg/kg (female rats; session 3 (every 15 minutes)): 0%
- responders at 300 mg/kg (female rats; session 4 (every 15 minutes)): 0%
- responders at 300 mg/kg (female rats; session 5 (every 15 minutes)): 10%
- responders at 300 mg/kg (female rats; session 6 (every 15 minutes)): 10%
- responders at 400 mg/kg (female rats; session 1 (every 15 minutes)): 0%
- responders at 400 mg/kg (female rats; session 2 (every 15 minutes)): 0%
- responders at 400 mg/kg (female rats; session 3 (every 15 minutes)): 0%
- responders at 400 mg/kg (female rats; session 4 (every 15 minutes)): 0%
- responders at 400 mg/kg (female rats; session 5 (every 15 minutes)): 10%
- responders at 400 mg/kg (female rats; [7]): 10%
- responders at 600 mg/kg (female rats; session 1 (every 15 minutes)): 0%
- responders at 600 mg/kg (female rats; session 2 (every 15 minutes)): 0%
- responders at 600 mg/kg (female rats; session 3 (every 15 minutes)): 10%
- responders at 600 mg/kg (female rats; session 4 (every 15 minutes)): 10%
- responders at 600 mg/kg (female rats; session 5 (every 15 minutes)): 20%
- responders at 600 mg/kg (female rats; [7]): 30%

Structure (SMILES): CC(N)Cc1ccccc1 (racemic) [d,l-amphetamine, reference compound]
- responders at 0.25 mg/kg (female rats; session 1 (every 15 minutes)): 0%
- responders at 0.25 mg/kg (female rats; session 2 (every 15 minutes)): 12.5%
- responders at 0.25 mg/kg (female rats; session 3 (every 15 minutes)): 25%
- responders at 0.25 mg/kg (female rats; session 4 (every 15 minutes)): 25%
- responders at 0.25 mg/kg (female rats; session 5 (every 15 minutes)): 25%
- responders at 0.25 mg/kg (female rats; session 6 (every 15 minutes)): 25%
- responders at 0.5 mg/kg (female rats; session 1 (every 15 minutes)): 0%
- responders at 0.5 mg/kg (female rats; session 2 (every 15 minutes)): 5.88%
- responders at 0.5 mg/kg (female rats; session 3 (every 15 minutes)): 11.8%
- responders at 0.5 mg/kg (female rats; session 4 (every 15 minutes)): 23.5%
- responders at 0.5 mg/kg (female rats; session 5 (every 15 minutes)): 29.4%
- responders at 0.5 mg/kg (female rats; session 6 (every 15 minutes)): 35.3%
- responders at 1 mg/kg (female rats; session 1 (every 15 minutes)): 0%
- responders at 1 mg/kg (female rats; session 2 (every 15 minutes)): 8.33%
- responders at 1 mg/kg (female rats; session 3 (every 15 minutes)): 25%
- responders at 1 mg/kg (female rats; session 4 (every 15 minutes)): 33.3%
- responders at 1 mg/kg (female rats; session 5 (every 15 minutes), * p < 0.05): 58.3%
- responders at 1 mg/kg (female rats; [7]): 58.3%
